From patent US9744175B2, “Compositions of combinations of non-covalent DNA binding agents and anti-cancer and/or anti-inflammatory agents and their use in disease treatment” (INDUS PHARMACEUTICALS, INC., priority 2012, dated 2017)
pIC50: −log10 of the molar value.

Assays:
U2OS Wild type = assay: siRNA inhibition of MMR, p53 and REV functions, alamar blue growth inhibition; format: cell-based, human
Description: (§1) siRNA specific for different genes is purchased from Dharmacon (Thermo. Fisher Scientific Dharmacon Products, Lafayette, Colo. 80026) and the protocol recommended by the supplier is utilized. Confluent cells are trypsinized and 5000 cells are seeded in a well in the presence or absence of siRNA in 100 μL medium. The cells are incubated with siRNA for two days. A non-covalent DNA binding agent of the invention is added in a 10 μL volume and incubated for another 48 hours. After treatment with the agent, the medium is replaced with 1% alamar blue containing medium to measure fluorescence after two hours.
as §1, with “from Dharmacon (Thermo Fisher Scientific” for “from Dharmacon (Thermo. Fisher Scientific”, “two hours. […] The results are presented in FIGS. 14-18 (SEQ ID NO:3-12, respectively) and Table 7.” for “two hours.”

HCT116 (mlh−) = assay: siRNA inhibition of p53 and REV functions, alamar blue growth inhibition; format: cell-based, human
Description: as §1
as §1, with “from Dharmacon (Thermo Fisher Scientific” for “from Dharmacon (Thermo. Fisher Scientific”, “two hours. […] The results are presented in FIGS. 14-18 (SEQ ID NO:3-12, respectively) and Table 7.” for “two hours.”

yeast rad50 mutation = assay: Alamar Blue cell survival assay in yeast cells; format: cell-based
Description: (§2) The cells are diluted 100-fold in yeast complete medium. 100 μL of diluted cells are seeded in 96 well plates with or without a non-covalent DNA binding compound and incubated for 24 hours at 30° C. The following day, an equal volume of yeast complete medium containing 1% alamar blue is added and incubated at 30° C. for two hours. Fluorescence intensity is measured in a fluorescent reader to calculate the inhibition effect of non-covalent DNA binding agents in mutant and wild type yeast cells.
(§3) Yeast cells that carry mutations in different genes involved in homologous recombination (rad 50, rad51, rad52, and rad57) and nucleotide excision/double strand repair (rad1) are grown to stationary culture overnight.

Wild type yeast = assay: Alamar Blue cell survival assay in yeast cells; format: cell-based
Description: as §2, §3

yeast rad52 mutation = assay: Alamar Blue cell survival assay in yeast cells; format: cell-based
Description: as §2, §3

yeast rad51 mutation = assay: Alamar Blue cell survival assay in yeast cells; format: cell-based
Description: as §2, §3

yeast rad1 mutation = assay: Alamar Blue cell survival assay in yeast cells; format: cell-based
Description: as §2, §3

## COc1cccc2c1C(=O)c1c(O)c3c(c(O)c1C2=O)C[C@@](O)(C(=O)CO)C[C@@H]3OC1CC(N)C(O)C(C)O1 (stereo partly drawn) [Doxorubicin, (8S,10S)-10-(4-amino-5-hydroxy-6-methyl-tetrahydro-2H-pyran-2-yloxy)-6,8,11-trihydroxy-8-(2-hydroxyacetyl)-1-methoxy-7,8,9,10-tetrahydrotetracene-5,12-dione, reference compound]
U2OS Wild type; Homo sapiens, no siRNA knock out, read-out: IC50, Control
  pIC50: 6.15
U2OS Wild type; mlh1 siRNA vs control
  Fold improvement in IC50, mlh1: 0.23 fold
U2OS Wild type; p53 siRNA vs control
  Fold improvement in IC50, p53: 0.7 fold
U2OS Wild type; rev siRNA vs control
  Fold improvement in IC50, rev: 0.35 fold

## CC[C@@]1(O)C(=O)OCc2c1cc1n(c2=O)Cc2cc3ccccc3nc2-1 [Camptothecin, (S)-4-ethyl-4-hydroxy-1H-pyrano[3′,4′:6,7]indolizino[1,2-b]quinoline-3,14-(4H,12H)-dione, reference compound]
HCT116 (mlh−); Homo sapiens, HCT-116, no siRNA knock out, read-out: IC50, Control
  pIC50: 6.60
HCT116 (mlh−); p53 siRNA vs control
  Fold improvement in IC50, p53: 1.3 fold
HCT116 (mlh−); rev siRNA vs control
  Fold improvement in IC50, rev: 1.7 fold

## COc1cc2c(cc1OCCCCOc1cc(-c3ccc(F)cc3)nc(C)n1)N=C[C@@H]1CCCN1C2=O [NSC 723732]
Yeast rad50 mutation
  pIC50: < 3.60
Wild type yeast
  pIC50: < 3.60
Yeast rad52 mutation
  pIC50: 3.98
Yeast rad51 mutation
  pIC50: 4.00
Yeast rad1 mutation
  pIC50: < 3.60
